The values below come from patent US6949250B2, “Selective algaecides for control of cyanochloronta” (The United States of America as represented by the …, priority 2002, dated 2005).

The IC50 is the concentration at which inhibition is half-maximal.

Read-outs that look alike come from different tables or passages of the source.

Data set [1] has as its system Selenastrum capricornutum. Kind of data set: Rapid bioassay screening for selective algicides (LOEC, LCIC). It is filed as cell-based. To be noted: rapid screening.
In data set [2] the test system is Oscillatoria perornata. The data set is described as above. The conditions noted are these: rapid screening; for MIC: read-out: LCIC (lowest-complete-inhibition concentration), Oscillatoria perornata; for minimal effective concentration: read-out: LOEC (lowest-observed-effect concentration), Oscillatoria perornata. It is filed as cell-based.
In data set [3] the test system is Selenastrum capricornutum. Kind of data set: 96-hour IC50 determination. The data set is classed as cell-based. To be noted: 96-hour 50% inhibition concentration, read-out: IC50, Selanastrum capricornutum. The method, then:
(§1) The green alga Selenastrum capricornutum (obtained from the United States Environmental Protection Agency, Corvallis, Oreg.) was used as the representative green algal species in the bioassay since it is a common species found in southeastern United States catfish ponds. […] In addition, a 96-hour 50% inhibition concentration (IC50) was determined for DNA1-19-1 and DNA2-59-1 by using the method described by Schrader et al. (1998b). Stock solutions of DNA1-19-1 and DNA2-59-1 were prepared so that final concentrations screened for 96-hour IC50 determinations were as follows: 1) 0, 0.01, 0.033, 0.1, 0.333, 1.0, 3.3, and 10.0 μM DNA1-19-1 for both O. perornata and S. capricornutum; 2) 0, 0.003, 0.01, 0.033, 0.1, 0.333, 1.0, and 3.333 μM DNA2-59-1 for O. perornata; and 3) 0, 0.1, 0.333, 1.0, 3.333, 10.0, 33.333, and 100.0 μM DNA2-59-1 for S. capricornutum. Estimation of the IC50 was determined by plotting 96-hour absorbance readings against logarithmic dilution values of the anthraquinone analogs.
(§2) The green alga Selenastrum capricornutum (obtained from the United States Environmental Protection Agency, Corvallis, Oreg.) was used as the representative green algal species in the bioassay since it is a common species found in southeastern United States catfish ponds. […] Stock solutions of DNA1-19-1 and DNA2-59-1 were prepared so that final concentrations screened for 96-hour IC50 determinations were as follows: 1) 0, 0.01, 0.033, 0.1, 0.333, 1.0, 3.3, and 10.0 μM DNA1-19-1 for both O. perornata and S. capricornutum; 2) 0, 0.003, 0.01, 0.033, 0.1, 0.333, 1.0, and 3.333 μM DNA2-59-1 for O. perornata; and 3) 0, 0.1, 0.333, 1.0, 3.333, 10.0, 33.333, and 100.0 μM DNA2-59-1 for S. capricornutum. Estimation of the IC50 was determined by plotting 96-hour absorbance readings against logarithmic dilution values of the anthraquinone analogs.

Data set [4] has as its system Oscillatoria perornata. Description: 96-hour IC50 determination. It is filed as cell-based. To be noted: for IC50: 96-hour 50% inhibition concentration; for selective toxicity towards O. perornata compared to S. capricornutum (result in words): based on laboratory screening and IC50 results. The method, then: as §1, §2
The nature of the next data set: Solubility in water. It is filed as physicochemical.

For the compound `CC(C)NCc1ccc2c(c1)C(=O)c1ccccc1C2=O` [DNA2-59-1, 2-[methylamino-N-(1′-methylethyl)]-9,10-anthraquinone monophosphate], the MIC in data set [1] (Selenastrum capricornutum, read-out: LCIC (lowest-complete-inhibition concentration), Selenastrum capricornutum) is 100 µM; in the data set with Oscillatoria perornata [2] (Planktothrix perornata) it was 0.1 µM. Further, the minimal effective concentration was determined as 10 µM in data set [1] (Selenastrum capricornutum, read-out: LOEC (lowest-observed-effect concentration), Selenastrum capricornutum) and 0.01 µM in the data set on Oscillatoria perornata [2] (Planktothrix perornata). For the same compound, the IC50 came out at 5620 nM in data set [3] (Selenastrum capricornutum) and 6.3 nM in the data set with Oscillatoria perornata [4] (Planktothrix perornata). Besides, the “selective toxicity towards O. perornata compared to S. capricornutum (result in words)” value in the data set on Oscillatoria perornata [4] was “very selectively toxic”. Also, the “solubility in water” value in “Solubility in water” is reported as “soluble in water”.

Turning to `CCN(CC)CCCC(C)NCc1ccc2c(c1)C(=O)c1ccccc1C2=O.O=P(O)(O)O.O=P(O)(O)O` (stereo not shown) [DNA1-19-1, 2-[methylamino-N-(1′-methyl-4′-N,N-diethylaminobutyl)]-9,10-anthraquinone diphosphate], in data set [1], the “LCIC (lowest-complete-inhibition concentration), Selenastrum capricornutum” value was 10,000 nM and the “LOEC (lowest-observed-effect concentration), Selenastrum capricornutum” value is listed as 10,000 nM. Moreover, in the data set with Oscillatoria perornata [2], the MIC stood at 0.1 µM and the minimal effective concentration amounted to 0.01 µM. Also, the IC50 in data set [3] came to 5010 nM. In addition, in the data set with Oscillatoria perornata [4], the IC50 came out at 63 nM and the “selective toxicity towards O. perornata compared to S. capricornutum (result in words)” value is “very selectively toxic”. Further, the “solubility in water” value in “Solubility in water” is recorded as “soluble in water”.
